Assay results published in patent publication US20250051347A1, “BIFUNCTIONAL CHIMERIC HETEROCYCLIC COMPOUND AND USE THEREOF AS ANDROGEN RECEPTOR DEGRADER” (Hinova Pharmaceuticals, Inc., priority 2021, published 2025).

Molecular target: T1, androgen receptor (AR) splicing variant AR-v7 (Homo sapiens, UniProt P10275)
T1 construct: The degradation activity of compounds on AR-v7 in 22RV1 cells; host or cells: 22RV1 cells
T1 sequence (P10275 1-644 isoform P10275-3): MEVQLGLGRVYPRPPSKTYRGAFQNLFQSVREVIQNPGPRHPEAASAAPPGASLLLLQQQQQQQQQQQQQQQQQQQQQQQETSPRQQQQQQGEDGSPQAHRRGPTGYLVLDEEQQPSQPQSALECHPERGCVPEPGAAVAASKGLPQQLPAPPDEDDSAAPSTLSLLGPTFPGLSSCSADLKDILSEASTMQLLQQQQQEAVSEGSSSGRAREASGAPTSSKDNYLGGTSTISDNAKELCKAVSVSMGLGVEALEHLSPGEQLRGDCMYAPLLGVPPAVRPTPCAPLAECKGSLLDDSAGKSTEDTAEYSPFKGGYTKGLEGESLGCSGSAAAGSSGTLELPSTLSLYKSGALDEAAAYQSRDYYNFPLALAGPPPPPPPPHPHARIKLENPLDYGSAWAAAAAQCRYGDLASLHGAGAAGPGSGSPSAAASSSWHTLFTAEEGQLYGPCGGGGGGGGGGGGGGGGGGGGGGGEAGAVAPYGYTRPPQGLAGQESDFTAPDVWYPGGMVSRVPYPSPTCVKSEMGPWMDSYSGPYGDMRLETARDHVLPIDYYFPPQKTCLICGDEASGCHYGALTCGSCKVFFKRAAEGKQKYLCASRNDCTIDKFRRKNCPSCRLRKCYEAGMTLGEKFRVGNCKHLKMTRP
Test: Degradation activity on androgen receptor splicing variant AR-v7 in 22RV1 cells (ELISA)
Format: cell-based
Conditions: AR-v7 degradation in 22RV1 cells, 48 h, class symbols

DC50 [µM]	Structure (SMILES)
0.011 to 0.1	CC(C)(c1ccc(CNc2ccc3c(c2)C(=O)N(C2CCC(=O)NC2=O)C3=O)cc1)c1ccc(OCc2ccnc(N3CC4(COC4)C3)n2)cc1 (stereo not drawn) [Example 507, 5-((4-(2-(4-((2-(2-oxa-6-azaspiro[3.3]heptan-6-yl)pyrimidin-4-yl)methoxy)phenyl)propan-2-yl)benzyl)amino)-2-(2,6-dioxopiperidin-3-yl)isoindolin-1,3-dione]
0.011 to 0.1	CC(C)(c1ccc(Oc2nc(-n3ccnn3)ccc2F)cc1)c1ccc(O[C@H]2C[C@H](Nc3ccc4c(c3)C(=O)N(C3CCC(=O)NC3=O)C4=O)C2)cc1 (stereo partly drawn) [Example 319]
0.011 to 0.1	Cn1nccc1-c1nccc(COc2ccc(C(C)(C)c3ccc(O[C@H]4C[C@@H](Nc5ccc6c(c5)C(=O)N(C5CCC(=O)NC5=O)C6=O)C4)cc3)cc2)n1 (stereo partly drawn) [Example 417]
1 to 5	CC(C)(c1ccc(OCCCNc2ccc3c(c2)C(=O)N(C2CCC(=O)NC2=O)C3=O)cc1)c1ccc(OCc2ccnc(S(C)(=O)=O)n2)cc1 (stereo not drawn) [Example 67, 2-(2,6-dioxopiperidin-3-yl)-5-((3-(4-(2-(4-(4-(2-(methanesulfonyl)pyrimidin-4-yl)methoxy)phenyl)propan-2-yl)phenoxy)propyl)amino)isoindolin-1,3-dione]
0.011 to 0.1	CC(C)(c1ccc(Oc2ccc(N3CC(N4CC(F)(F)C4)C3)nn2)cc1)c1ccc(O[C@H]2C[C@H](Nc3ccc4c(c3)C(=O)N(C3CCC(=O)NC3=O)C4=O)C2)cc1 (stereo partly drawn) [Example 424]
0.101 to 1	CC(=O)c1nccc(COc2ccc(C(C)(C)c3ccc(OC4CCC5(C4)CN(c4ccc6c(c4)C(=O)N(C4CCC(=O)NC4=O)C6=O)C5)cc3)cc2)n1 (stereo not drawn) [Example 490]
0.101 to 1	CC1(CNc2nccc(COc3ccc(C(C)(C)c4ccc(O[C@H]5C[C@@H](Nc6ccc7c(c6)C(=O)N(C6CCC(=O)NC6=O)C7=O)C5)cc4)cc3)n2)COC1 (stereo partly drawn) [Example 269]
< 0.01	CC(C)(c1ccc(Oc2cnc(C(O)C3CCC3)nc2)cc1)c1ccc(O[C@H]2C[C@H](Nc3ccc4c(c3)C(=O)N(C3CCC(=O)NC3=O)C4=O)C2)cc1 (stereo partly drawn) [Example 261]
0.011 to 0.1	CC(C)(c1ccc(Oc2cnc(C#N)cn2)cc1)c1ccc(O[C@H]2C[C@H](Nc3ccc4c(c3)C(=O)N(C3CCC(=O)NC3=O)C4=O)C2)cc1 (stereo partly drawn) [Example 594, 5-(4-(2-(4-((1r,3r)-3-((2-(2,6-dioxopiperidin-3-yl)-1,3-dioxoisoindolin-5-yl)amino)cyclobutyloxy)phenyl)propan-2-yl)phenoxy)pyrazin-2-nitrile]
0.011 to 0.1	C[C@@H]1CN(c2nccc(COc3ccc(C(C)(C)c4ccc(O[C@H]5C[C@@H](Nc6ccc7c(c6)C(=O)N(C6CCC(=O)NC6=O)C7=O)C5)cc4)cc3)n2)C[C@H](C)N1 (stereo partly drawn) [Example 433, 5-(((1s,3s)-3-(4-(2-(4-((2-((3s,5r)-3,5-dimethylpiperazin-1-yl)pyrimidin-4-yl)methoxy)phenyl)propan-2-yl)phenoxy)cyclobutyl)amino)-2-(2,6-dioxopiperidin-3-yl)isoindolin-1,3-dione]
0.011 to 0.1	Cc1noc(-c2cccc(COc3ccc(C(C)(C)c4ccc(O[C@H]5C[C@@H](Nc6ccc7c(c6)C(=O)N(C6CCC(=O)NC6=O)C7=O)C5)cc4)cc3)n2)n1 (stereo partly drawn) [Example 472]
1 to 5	CC(=O)c1nccc(COc2ccc(C(C)(C)c3ccc(OC[C@H]4CCCN4c4ccc5c(c4)C(=O)N(C4CCC(=O)NC4=O)C5=O)cc3)cc2)n1 (stereo partly drawn) [Example 144, 5-((R)-2-((4-(2-(4-((2-acetylpyrimidin-4-yl)methoxy)phenyl)propan-2-yl)phenoxy)methyl)pyrrolidin-1-yl)-2-(2,6-dioxopiperidin-3-yl)isoindolin-1,3-dione]
0.101 to 1	CC(C)(c1ccc(OCc2ccnc(N3CC4(COC4)C3)n2)cc1)c1ccc(OC[C@@H]2CCCN2c2ccc3c(c2)C(=O)N(C2CCC(=O)NC2=O)C3=O)cc1 (stereo partly drawn) [Example 313, 5-((S)-2-((4-(2-(4-((2-(2-oxa-6-azaspiro[3.3]heptane-6-yl)pyrimidin-4-yl)methoxy)phenyl)propan-2-yl)phenoxy)methyl)pyrrolidin-1-yl)-2-(2,6-dioxopiperidin-3-yl)isoindolin-1,3-dione]
0.011 to 0.1	Cc1nc(-c2ccc(Oc3ccc(C(C)(C)c4ccc(O[C@H]5C[C@@H](Nc6ccc7c(c6)C(=O)N(C6CCC(=O)NC6=O)C7=O)C5)cc4)cc3)nc2)no1 (stereo partly drawn) [Example 213]

The next lines start with the compound.

Structure (SMILES)	DC50 [µM]
CC1(CNc2nccc(COc3ccc(C(C)(C)c4ccc(O[C@H]5C[C@@H](Nc6ccc7c(c6)C(=O)N(C6CCC(=O)NC6=O)C7=O)C5)cc4)cc3)n2)CNC1 (stereo partly drawn) [Example 457]	0.011 to 0.1
CC(C)(c1ccc(OCc2cccc(-n3cccn3)n2)cc1)c1ccc(O[C@H]2C[C@H](Nc3ccc4c(c3)C(=O)N(C3CCC(=O)NC3=O)C4=O)C2)cc1 (stereo partly drawn) [Example 253]	0.011 to 0.1
CC1CN(c2nccc(COc3ccc(C(C)(C)c4ccc(OCCCCCCCCOCCCCNc5ccc6c(c5)C(=O)N(C5CCC(=O)NC5=O)C6=O)cc4)cc3)n2)C1 (stereo not drawn) [Example 63]	1 to 5
Cn1cc(-c2ccc(Oc3ccc(C(C)(C)c4ccc(O[C@H]5C[C@H](Nc6ccc7c(c6)C(=O)N(C6CCC(=O)NC6=O)C7=O)C5)cc4)cc3)cn2)cn1 (stereo partly drawn) [Example 205]	0.011 to 0.1
CC(C)(c1ccc(OCc2ccnc(N3CCC4(CCNC4)CC3)n2)cc1)c1ccc(O[C@H]2C[C@@H](Nc3ccc4c(c3)C(=O)N(C3CCC(=O)NC3=O)C4=O)C2)cc1 (stereo partly drawn) [Example 500, 5-((1s,3s)-3-(4-(2-(4-(4-((2-(2,8-diazaspiro[4.5]decan-8-yl)pyrimidin-4-yl)methoxy)phenyl)propan-2-yl)phenoxy)cyclobutyl)amino)-2-(2,6-dioxopyridin-3-yl)isoindolin-1,3-dione]	0.011 to 0.1
CC(=O)c1nccc(COc2ccc(C(C)(C)c3ccc(OC4CC5(C4)CN(c4ccc6c(c4)C(=O)N(C4CCC(=O)NC4=O)C6=O)C5)cc3)cc2)n1 (stereo not drawn) [Example 561]	0.011 to 0.1
CC(C)(c1ccc(Oc2cnc(-n3nccn3)c(Cl)c2)cc1)c1ccc(O[C@H]2C[C@H](Nc3ccc4c(c3)C(=O)N(C3CCC(=O)NC3=O)C4=O)C2)cc1 (stereo partly drawn) [Example 515]	0.011 to 0.1
O=C1CCC(N2C(=O)c3ccc(N[C@H]4C[C@H](Oc5ccc(Cc6ccc(Oc7cnc(-n8ccnn8)nc7)cc6)cc5)C4)cc3C2=O)C(=O)N1 (stereo partly drawn) [Example 520]	0.011 to 0.1
CCS(=O)(=O)Nc1nccc(COc2ccc(C(C)(C)c3ccc(OCCCCCCCCOCCCCNc4ccc5c(c4)C(=O)N(C4CCC(=O)NC4=O)C5=O)cc3)cc2)n1 (stereo not drawn) [Example 44]	0.101 to 1
CC(C)(c1ccc(OCc2ccnc(N3CC4(COC4)C3)n2)cc1)c1ccc(OC2CC3(CC(Nc4ccc5c(c4)C(=O)N(C4CCC(=O)NC4=O)C5=O)C3)C2)cc1 (stereo not drawn) [Example 567, 5-((6-(4-(2-(4-((2-(2-oxa-6-azaspiro[3.3]heptan-6-yl)pyrimidin-4-yl)methoxy)phenyl)propan-2-yl)phenoxy)spiro[3.3]heptan-2-yl)amino)-2-(2,6-dioxopiperidin-3-yl)isoindolin-1,3-dione]	0.101 to 1
O=C1CCC(N2C(=O)c3ccc(N[C@H]4C[C@H](Oc5ccc(C6(c7ccc(Oc8ccc(-n9nccn9)nn8)cc7)CC6)cc5)C4)cc3C2=O)C(=O)N1 (stereo partly drawn) [Example 374, 5-(((1r,3r)-3-(4-(1-(4-((6-(2H-1,2,3-triazole-2-yl)pyridazine-3-yl)oxy)phenyl)cyclopropyl)phenoxy)cyclobutyl)amino)-2-(2,6-dioxopiperidin-3-yl)isoindolin-1,3-dione]	0.011 to 0.1
Cc1nc(-c2cnc(Oc3ccc(C(C)(C)c4ccc(O[C@H]5C[C@H](Nc6ccc7c(c6)C(=O)N(C6CCC(=O)NC6=O)C7=O)C5)cc4)cc3)nc2)no1 (stereo partly drawn) [Example 327]	0.011 to 0.1

Same assay, conditions: AR-v7 degradation in 22RV1 cells, 48 h, numeric values

DC50 [µM]	Structure (SMILES)
> 10	CC(=O)c1nccc(COc2ccc(C(C)(C)c3ccc(OCCCCCCCCOCCN4CCN(c5ccc6c(c5)C(=O)N(C5CCC(=O)NC5=O)C6=O)CC4)cc3)cc2)n1 (stereo not drawn) [Example 299, 5-(4-(2-((8-(4-(2-(4-((2-acetylpyrimidin-4-yl)methoxy)phenyl)propan-2-yl)phenoxy)octyl)oxy)ethyl)piperazin-1-yl)-2-(2,6-dioxopiperidin-3-yl)isoindolin-1,3-dione]
> 2	CC(=O)c1ncc(COc2ccc(C(C)(C)c3ccc(OCCCCCCCCOCCCCNc4ccc5c(c4)C(=O)N(C4CCC(=O)NC4=O)C5=O)cc3)cc2)cn1 (stereo not drawn) [Example 385, 5-((4-((8-(4-(2-(4-((2-acetylpyrimidin-5-yl)methoxy)phenyl)propan-2-yl)phenoxy)octyl)oxy)butyl)amino)-2-(2,6-dioxopiperidin-3-yl)isoindol-1,3-dione]

The remaining lines, values behind:

Structure (SMILES)	DC50 [µM]
CN(c1nccc(COc2ccc(C(C)(C)c3ccc(OCCCCCCCCOCCCCNc4ccc5c(c4)C(=O)N(C4CCC(=O)NC4=O)C5=O)cc3)cc2)n1)S(C)(=O)=O (stereo not drawn) [Example 25, N-(4-((4-(2-(4-((8-(4-((2-(2,6-dioxopiperidin-3-yl)-1,3-dioxoisoindolin-5-yl)amino)butoxy)octyl)oxy)phenyl)propan-2-yl)phenoxy)methyl)pyrimidin-2-yl)-N-methyl methanesulfonamide]	> 10
CC(C)(c1ccc(OCc2ccnc(NS(C)(=O)=O)n2)cc1)c1ccc(OC[C@H]2CC[C@H](CN3CCC(CN4CCC5(CC4)CN(c4ccc6c(c4)C(=O)N(C4CCC(=O)NC4=O)C6=O)C5)CC3)CC2)cc1 (stereo partly drawn) [Example 39]	> 10
